From patent US7320978B2, “Oxazole derivatives, preparation and therapeutic use thereof” (Sanofi-Aventis, priority 2004, dated 2008)

With `CC(=O)C1(c2ccccc2)CCN(C(=O)c2nc(-c3ccc(Cl)cc3)c(-c3ccc(Cl)cc3Cl)o2)CC1` the melting point was 175 °C.
